Among the data in ChEMBL document CHEMBL4376804, “Review of Transient Receptor Potential Canonical (TRPC5) Channel Modulators and Diseases” (J Med Chem, 2019) are IC50 values, retold here.

The first assay has as its target T1, Short transient receptor potential channel 3 (Homo sapiens, UniProt Q13507).
T1 sequence (Q13507 whole entry): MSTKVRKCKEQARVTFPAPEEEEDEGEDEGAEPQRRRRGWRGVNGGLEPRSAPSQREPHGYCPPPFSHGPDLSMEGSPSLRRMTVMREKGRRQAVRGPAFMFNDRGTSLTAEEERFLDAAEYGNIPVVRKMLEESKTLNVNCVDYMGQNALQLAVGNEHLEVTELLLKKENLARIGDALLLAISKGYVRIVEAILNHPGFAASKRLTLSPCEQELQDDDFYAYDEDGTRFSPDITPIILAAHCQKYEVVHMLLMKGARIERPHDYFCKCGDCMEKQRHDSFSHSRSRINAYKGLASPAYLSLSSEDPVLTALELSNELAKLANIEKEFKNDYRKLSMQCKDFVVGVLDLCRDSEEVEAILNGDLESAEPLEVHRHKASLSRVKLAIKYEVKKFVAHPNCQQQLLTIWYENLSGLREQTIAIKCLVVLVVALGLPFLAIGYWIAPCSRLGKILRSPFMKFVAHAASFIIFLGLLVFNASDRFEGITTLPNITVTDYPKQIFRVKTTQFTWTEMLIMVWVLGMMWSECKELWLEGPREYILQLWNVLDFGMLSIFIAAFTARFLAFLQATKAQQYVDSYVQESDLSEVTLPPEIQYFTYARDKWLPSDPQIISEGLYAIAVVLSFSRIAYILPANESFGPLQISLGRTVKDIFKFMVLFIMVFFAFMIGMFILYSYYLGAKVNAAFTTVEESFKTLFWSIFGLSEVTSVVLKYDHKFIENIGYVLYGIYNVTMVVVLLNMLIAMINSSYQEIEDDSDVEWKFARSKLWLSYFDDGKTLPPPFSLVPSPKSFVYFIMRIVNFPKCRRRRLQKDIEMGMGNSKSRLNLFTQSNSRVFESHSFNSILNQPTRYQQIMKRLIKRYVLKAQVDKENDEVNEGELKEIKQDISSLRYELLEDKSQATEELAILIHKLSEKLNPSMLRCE
The assay can be described thus: Inhibition of YFP-tagged TRPC3 (unknown origin) expressed in HEK293 cells assessed as reduction carbhocol-induced receptor operated Calcium influx after 5 mins by fura-2-AM dye based assay. Format: cell-based.
A word on the IC50: it is the concentration that gives 50% inhibition. For the compound `Cc1ccc(S(=O)(=O)Nc2ccc(-n3nc(C(F)(F)F)cc3C(F)(F)F)cc2)cc1`, the IC50 is 0.72 µM.

Another assay deals with T2, Short transient receptor potential channel 5 (Homo sapiens, UniProt Q9UL62).
T2 sequence (Q9UL62 whole entry): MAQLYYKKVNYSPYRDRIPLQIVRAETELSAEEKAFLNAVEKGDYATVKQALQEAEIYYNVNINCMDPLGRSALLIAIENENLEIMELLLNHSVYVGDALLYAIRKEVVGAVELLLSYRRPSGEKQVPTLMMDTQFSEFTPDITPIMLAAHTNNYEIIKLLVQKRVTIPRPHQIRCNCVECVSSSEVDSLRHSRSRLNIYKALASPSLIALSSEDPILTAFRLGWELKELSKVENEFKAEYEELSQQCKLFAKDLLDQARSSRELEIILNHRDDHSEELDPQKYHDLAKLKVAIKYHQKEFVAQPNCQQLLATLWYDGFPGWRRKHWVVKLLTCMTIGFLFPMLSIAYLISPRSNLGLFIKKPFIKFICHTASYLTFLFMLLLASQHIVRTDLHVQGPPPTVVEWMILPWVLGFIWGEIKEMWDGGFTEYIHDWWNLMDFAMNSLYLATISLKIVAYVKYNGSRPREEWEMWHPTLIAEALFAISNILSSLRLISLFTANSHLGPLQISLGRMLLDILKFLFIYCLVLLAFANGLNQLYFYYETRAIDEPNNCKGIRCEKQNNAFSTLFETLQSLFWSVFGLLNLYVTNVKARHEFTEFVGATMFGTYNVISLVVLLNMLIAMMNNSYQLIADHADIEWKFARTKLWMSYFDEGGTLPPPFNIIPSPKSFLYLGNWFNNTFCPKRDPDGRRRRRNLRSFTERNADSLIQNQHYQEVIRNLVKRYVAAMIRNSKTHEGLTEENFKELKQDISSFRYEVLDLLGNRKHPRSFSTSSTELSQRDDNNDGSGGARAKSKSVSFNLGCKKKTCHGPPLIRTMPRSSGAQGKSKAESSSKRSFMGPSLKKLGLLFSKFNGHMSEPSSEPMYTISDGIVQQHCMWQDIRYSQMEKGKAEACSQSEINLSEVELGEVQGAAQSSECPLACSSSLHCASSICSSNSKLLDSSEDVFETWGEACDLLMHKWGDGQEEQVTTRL
Put plainly: Inhibition of human TRPC5 expressed in HEK293 cells assessed as reduction in gadolinium-induced calcium entry after 30 mins by fluo-4 dye based fluorescence assay. Format: cell-based.
As to `O=c1c(O)c(-c2cc(O)c(O)c(O)c2)oc2cc(O)cc(O)c12` [MYRICETIN], the IC50 is above 10 µM. Same read-out and setting: to `O=c1cc(-c2ccc(O)cc2)oc2cc(O)cc(O)c12` [APIGENIN] belongs above 10 µM; to `O=c1cc(-c2ccc(O)c(O)c2)oc2cc(O)cc(O)c12` [LUTEOLIN], above 10 µM.

The target in another assay is ORAI1/STIM1 (Rattus norvegicus, UniProt P84903+Q5M848). The assay can be described thus: Inhibition of ORAI/STIM1 in thapsigargin treated rat RBL2H3 cells assessed as reduction in store-operated calcium entry after 5 mins by fura-2-AM dye based assay. It counts as cell-based.
Chain of ORAI1/STIM1 (P84903 whole entry): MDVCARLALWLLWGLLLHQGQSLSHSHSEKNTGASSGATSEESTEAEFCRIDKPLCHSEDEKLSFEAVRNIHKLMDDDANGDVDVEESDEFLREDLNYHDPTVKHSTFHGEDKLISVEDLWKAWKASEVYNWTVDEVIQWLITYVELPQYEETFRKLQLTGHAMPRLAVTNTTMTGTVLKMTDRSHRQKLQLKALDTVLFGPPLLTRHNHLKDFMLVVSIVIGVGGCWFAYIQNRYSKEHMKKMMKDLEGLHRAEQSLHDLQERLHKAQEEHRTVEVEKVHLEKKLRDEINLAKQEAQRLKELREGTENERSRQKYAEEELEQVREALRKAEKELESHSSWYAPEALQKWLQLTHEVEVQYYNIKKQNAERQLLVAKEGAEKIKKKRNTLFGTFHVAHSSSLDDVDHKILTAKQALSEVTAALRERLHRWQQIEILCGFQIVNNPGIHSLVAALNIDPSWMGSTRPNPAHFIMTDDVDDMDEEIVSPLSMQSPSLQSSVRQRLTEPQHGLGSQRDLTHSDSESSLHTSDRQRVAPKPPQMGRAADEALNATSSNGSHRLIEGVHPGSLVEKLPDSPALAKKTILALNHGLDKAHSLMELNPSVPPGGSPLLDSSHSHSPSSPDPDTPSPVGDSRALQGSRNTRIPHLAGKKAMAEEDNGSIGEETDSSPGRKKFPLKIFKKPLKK
Chain of ORAI1/STIM1 (Q5M848 whole entry): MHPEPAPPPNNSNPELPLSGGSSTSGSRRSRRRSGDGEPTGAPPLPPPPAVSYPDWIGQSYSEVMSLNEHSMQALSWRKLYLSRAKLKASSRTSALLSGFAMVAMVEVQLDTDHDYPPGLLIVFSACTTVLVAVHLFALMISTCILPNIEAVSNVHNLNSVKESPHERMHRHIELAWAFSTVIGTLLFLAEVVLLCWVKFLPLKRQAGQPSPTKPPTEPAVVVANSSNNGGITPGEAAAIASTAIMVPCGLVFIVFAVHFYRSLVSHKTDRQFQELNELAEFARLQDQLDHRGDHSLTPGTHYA
Regarding `Cc1ccc(S(=O)(=O)Nc2ccc(-n3nc(C(F)(F)F)cc3C(F)(F)F)cc2)cc1`, the half-inhibitory concentration (IC50) came to 13.1 µM.

A further assay deals with T2, Short transient receptor potential channel 5. The assay can be described thus: Inhibition of TRPC5 (unknown origin) expressed in HEK293/TREx cells assessed as reduction in intracellular calcium level measured for 3 mins by fluo4 dye-based fluorescence assay. Format: cell-based. For orientation: Calcium flux is commonly read through the fluorescence of an indicator in the cells.
On to `Cc1c(-c2ccccc2Cl)sc2c1c(=O)n(CCCO)c(=O)n2C`, for which the IC50 is 0.021 to 1.7 µM.

For the compound `Cn1c(=O)n(CCCO)c(=O)c2c(Cc3ccccc3)c(Oc3cccc(Cl)c3)ccc21`, the IC50 lay within 0.001 to 0.395 µM. For the compound `CCCCOc1ccc2c(c1Cc1ccc(F)cc1)c(=O)n(CCCO)c(=O)n2C`, the 50% inhibitory concentration (IC50) lay in the range of 0.001 to 0.395 µM.

With `Cc1c(-c2ccc3ccccc3c2)sc2c1c(=O)n(CCCO)c(=O)n2C`, the half-maximal inhibitory concentration (IC50) lay in the range of 0.021 to 1.7 µM.

Consider `Cn1c(=O)n(CCCCO)c(=O)c2c(Cc3ccccc3)c(Oc3cccc(OC(F)(F)F)c3)ccc21`, for which the half-inhibitory concentration (IC50) lay within 0.001 to 0.395 µM. As for `Cc1c(-c2cccc(Cl)c2)sc2c1c(=O)n(CCCO)c(=O)n2C`, the half-maximal inhibitory concentration (IC50) was 0.021 to 1.7 µM. For `Cn1c(=O)n(CCCO)c(=O)c2c(Cc3ccccc3)c(-c3cccc(OC(F)(F)F)c3)ncc21`, the IC50 was 0.195 to 9.8 µM.

On to `Cc1c(-c2cccc(OC(F)(F)F)c2)[nH]c2c(=O)n(CCCO)c(=O)n(C)c12`, for which the half-maximal inhibitory concentration (IC50) was in the range of 0.408 to 7.54 µM. For `Cc1c(-c2cncc(Cl)c2)sc2c1c(=O)n(CCCO)c(=O)n2C`, the IC50 is 0.021 to 1.7 µM.

`Cn1c(=O)n(CCCO)c(=O)c2c1cc(-c1cccc(OC(F)(F)F)c1)n2Cc1ccc(Cl)cc1`: the IC50 lay within 0.408 to 7.54 µM. Still for that read-out and setting: then `CC(C)CCc1c(-c2cccc(OC(F)(F)F)c2)sc2c1c(=O)n(CCCO)c(=O)n2C`, with 0.021 to 1.7 µM; and `CC(C)CCc1c(-c2ccccc2C(C)C)ncc2c1c(=O)n(CCCO)c(=O)n2C`, with 0.195 to 9.8 µM; and `Cn1c(-c2cccc(OC(F)(F)F)c2)cc2c1c(=O)n(CCCO)c(=O)n2C`, with 0.408 to 7.54 µM. On to `Cc1c(-c2ccccc2OC(F)(F)F)sc2c1c(=O)n(CCCO)c(=O)n2C`, for which the half-maximal inhibitory concentration (IC50) fell in the range of 0.021 to 1.7 µM. Turning to `Cn1c(=O)n(CCCO)c(=O)c2c(Cc3ccccc3)c(Oc3cccc(OC(F)(F)F)c3)ccc21`, the half-maximal inhibitory concentration (IC50) was 0.001 to 0.395 µM. Turning to `Cc1c(-c2cccc(Cl)c2Cl)sc2c1c(=O)n(CCCO)c(=O)n2C`, the IC50 was 0.021 to 1.7 µM. The same measure, in the same setting: then `Cn1c(=O)n(CCCO)c(=O)c2c(Cc3ccc(F)cc3)c(Oc3cccc(OC(F)(F)F)c3)ccc21`, with 0.001 to 0.395 µM; and `Cn1c(=O)n(CCCO)c(=O)c2c(Cc3ccc(Cl)cc3)c(Oc3cccc(OC(F)(F)F)c3)sc21`, with 0.021 to 1.7 µM; and `Cc1c(-c2ccc(F)c(F)c2)sc2c1c(=O)n(CCCO)c(=O)n2C`, with 0.021 to 1.7 µM. Turning to `CC(C)c1ccccc1-c1cc2c(=O)n(CCCO)c(=O)n(C)c2cn1`, the IC50 was in the range of 0.195 to 9.8 µM. Same read-out and setting: to `CC(C)Oc1ccc2c(c1Cc1ccc(F)cc1)c(=O)n(CCCO)c(=O)n2C` belongs 0.001 to 0.395 µM; to `Cc1c(-c2cccc(OC(F)(F)F)c2)sc2c1c(=O)n(CCCO)c(=O)n2C`, 0.021 to 1.7 µM; to `Cn1c(=O)n(CCCO)c(=O)c2c1cc(-c1cccc(Cl)c1)n2Cc1ccc(Cl)cc1`, 0.408 to 7.54 µM. With `Cn1c(=O)n(CCCO)c(=O)c2c(Cc3ccc(Cl)cc3)c(-c3cccc(OC(F)(F)F)c3)sc21`, the IC50 was 0.021 to 1.7 µM.

For the compound `Cc1cn(Cc2ccc(Cl)cc2)c2c(=O)n(CCCO)c(=O)n(C)c12`, the half-maximal inhibitory concentration (IC50) is 0.408 to 7.54 µM. As to `Cn1c(=O)n(CCCO)c(=O)c2c(Cc3ccccc3)c(-c3cccc(OC(F)(F)F)c3)ccc21`, the IC50 was 0.001 to 0.395 µM. On to `O=c1c2c(Cc3ccc(Cl)cc3)c(-c3cccc(Cl)c3)oc2n(CCCO)c(=O)n1CCCO`, for which the IC50 was 0.021 to 1.7 µM. The same measure, in the same setting: to `Cn1c(=O)n(CCCO)c(=O)c2c(Cc3ccc(Cl)cc3)c(-c3cccc(Cl)c3)sc21` belongs 0.021 to 1.7 µM; to `CC(C)CC(O)c1c(-c2cccc(OC(F)(F)F)c2)sc2c1c(=O)n(CCCO)c(=O)n2C` (stereo not drawn), 0.021 to 1.7 µM. In the case of `Cn1c(=O)n(CCCOC(=O)O)c(=O)c2c(Cc3ccc(Cl)cc3)c(-c3ccc(Cl)cc3)ncc21`, the 50% inhibitory concentration (IC50) lay within 0.195 to 9.8 µM.

As for `Cn1c(=O)n(CCCO)c(=O)c2c(Cc3ccc(Cl)cc3)c(-c3cccc(Cl)c3)oc21`, the IC50 lay within 0.021 to 1.7 µM. For `CC(C)CCc1c(-c2ccc(Cl)cc2)ncc2c1c(=O)n(CCCO)c(=O)n2C`, the IC50 was in the range of 0.195 to 9.8 µM.

As to `Cn1c(=O)n(CCCO)c(=O)c2c(C(O)c3ccc(Cl)cc3)c(Oc3cccc(OC(F)(F)F)c3)sc21` (stereo not drawn), the IC50 lay in the range of 0.021 to 1.7 µM. With `Cc1c(-c2ccc(F)c(C(F)(F)F)c2)sc2c1c(=O)n(CCCO)c(=O)n2C`, the concentration for half-maximal inhibition (IC50) lay within 0.021 to 1.7 µM. The same measure, in the same setting: then `Cn1c(=O)n(CCCO)c(=O)c2c(C(O)c3ccc(Cl)cc3)c(-c3cccc(Cl)c3)sc21` (stereo not drawn), with 0.021 to 1.7 µM; and `Cc1c(-c2ccc(Cl)c(Cl)c2)sc2c1c(=O)n(CCCO)c(=O)n2C`, with 0.021 to 1.7 µM; and `Cc1c(-c2cccc(OC(F)(F)F)c2)n(C)c2c(=O)n(CCCO)c(=O)n(C)c12`, with 0.408 to 7.54 µM. Take `Cn1c(=O)n(CCCO)c(=O)c2c(Cc3ccc(Cl)cc3)c(Oc3cccc(Cl)c3)sc21`: the IC50 is 0.021 to 1.7 µM. As to `Cc1c(-c2cccc(F)c2)sc2c1c(=O)n(CCCO)c(=O)n2C`, the IC50 was in the range of 0.021 to 1.7 µM.

Take `COc1ccc2c(c1Cc1ccc(F)cc1)c(=O)n(CCCO)c(=O)n2C`: the half-maximal inhibitory concentration (IC50) fell in the range of 0.001 to 0.395 µM. On to `Cc1c(-c2cccc(OC(F)(F)F)c2)n(Cc2ccc(Cl)cc2)c2c(=O)n(CCCO)c(=O)n(C)c12`, for which the half-maximal inhibitory concentration (IC50) fell in the range of 0.408 to 7.54 µM. For `Cn1c(=O)n(CCCO)c(=O)c2c(Cc3ccc(Cl)cc3)c(-c3ccc(Cl)cc3)sc21`, the IC50 is 0.021 to 1.7 µM.

As for `CC(C)CCc1c(-c2cccc(Cl)c2)ncc2c1c(=O)n(CCCO)c(=O)n2C`, the 50% inhibitory concentration (IC50) was in the range of 0.195 to 9.8 µM. Still for that read-out and setting: then `CC(C)c1ccccc1-c1ncc2c(c1Cc1ccc(Cl)cc1)c(=O)n(CCCO)c(=O)n2C`, with 0.195 to 9.8 µM; and `Cn1c(=O)n(CCCO)c(=O)c2c(Cc3ccc(Cl)cc3)c(Oc3cccc(Cl)c3)ncc21`, with 0.195 to 9.8 µM; and `Cc1c(-c2ccc(Cl)cc2)sc2c1c(=O)n(CCCO)c(=O)n2C`, with 0.021 to 1.7 µM.

As for `Cn1c(=O)n(CCCO)c(=O)c2c1c(-c1cccc(Cl)c1)cn2Cc1ccc(Cl)cc1`, the half-maximal inhibitory concentration (IC50) was in the range of 0.408 to 7.54 µM. Turning to `CCCOc1ccc2c(c1Cc1ccc(F)cc1)c(=O)n(CCCO)c(=O)n2C`, the IC50 lay in the range of 0.001 to 0.395 µM.
